Laboratory results as given in patent publication US20240174622A1, “COMPOUND AND RADIOACTIVE LABELING COMPOUND” (NIHON MEDI-PHYSICS CO., LTD., priority 2021, published 2024).

What was measured:
[1] = molecular target: human serum albumin (HSA) (Homo sapiens, UniProt P02768); test: Evaluation of binding to albumin (HSA solution, PBS control); details: left to stand in HSA solution (45 mg/mL)
Protocol: Thereafter, the reaction liquids were added to a spin column (Sephadex G-100; manufactured by Cytiva), and centrifuged at 1500×g at 4° C. for 2 minutes. After separation, the radioactivity for each of the column and the eluate was measured with a gamma counter.
When a compound to be evaluated binds to albumin to form a composite, the compound passes through the column because of the increased molecular size.
As in Examples described above, PBS and human albumin were used to evaluate binding to albumin.
Thereafter, the reaction liquid was added to a spin column (Sephadex G-50; manufactured by Cytiva), and centrifuged at 1500×g at 4° C. for 2 minutes. After separation, the radioactivity of the column and the eluate was measured with a gamma counter.

[2] = test system: LNCaP tumor-transplanted mouse; test: Internal radioactivity distribution using LNCaP tumor-transplanted mouse; format: in vivo
Protocol: (§1) The animal test was performed in compliance with the guidelines of Kyoto University Animal Experiment Committee. Male CB17/IcrJcl-Prkdc^scid mice were purchased from CLEA Japan, Inc. The animals were kept under 12 h/12 h, day/night cycle conditions and fed ad libitum with food and water. LNCaP cells (1.0×10^7 cells/mouse) or PC-3 cells (1.0×10^7 cells/mouse) were suspended in a mixture of PBS and Matrigel manufactured by Corning Life Sciences (1:1, 150 μL) and the suspension was subcutaneously transplanted to the right shoulder of mice under isoflurane anesthesia. Thereafter, the mice were kept for 40 to 60 days.
LNCaP or PC-3 tumor-implanted mice were administered saline solutions (185 kBq, 100 μL) of [^111In]In-PSMA-DA1 or [^111In]In-PSMA-DB from the tail vein (n=3 each). Mice were euthanized 1, 4, 24, 48, 96, and 192 hours after administration. Thereafter, blood and each organ were recovered, and the mass and radioactivity of the organs were measured.
The percentage (% ID) of the radioactivity amount to the administered radioactivity amount (injected dose) is shown as the value (% ID/g) divided by the blood mass or the organ mass (g).
LNCaP tumor-implanted mice prepared by the same method as in Example 1-1 were administered a saline solution (241 kBq/100 μL) of [^111In]In-PtDA from the tail vein (n=3). Mice were euthanized 1, 24, and 48 hours after administration. Thereafter, blood and each organ were recovered, and the mass and radioactivity of the organs were measured.
LNCaP tumor-implanted mice prepared by the same method as in Example 1-1 were administered a saline solution (259 kBq/100 μL each) of each of the radiolabeled compounds in Examples 3-1 to 3-3 or Comparative Examples 2-1 to 2-2 from the tail vein (n=2 to 3). Mice were euthanized 1, 4, 24, 48, 96, and 192 hours after administration. Thereafter, blood and each organ were recovered, and the mass and radioactivity of the organs were measured.
as §1, with “LNCaP cells (4.3×10^6 cells/mouse) or” for “LNCaP cells (1.0×10^7 cells/mouse) or”, “PC-3 cells (3.3×10^6 cells/mouse) were” for “PC-3 cells (1.0×10^7 cells/mouse) were”, “shoulder of CB17/IcrJcl-Prkdc^scid mice under” for “shoulder of mice under”
Mice were euthanized 1, 4, 24, 48, 96, and 192 hours after administration. Thereafter, blood and each organ were recovered, and the mass and radioactivity of the organs were measured.
The results are shown in Table 12 (Mean value±standard deviation, n=3).

human serum albumin (HSA), sequence (P02768 25-609): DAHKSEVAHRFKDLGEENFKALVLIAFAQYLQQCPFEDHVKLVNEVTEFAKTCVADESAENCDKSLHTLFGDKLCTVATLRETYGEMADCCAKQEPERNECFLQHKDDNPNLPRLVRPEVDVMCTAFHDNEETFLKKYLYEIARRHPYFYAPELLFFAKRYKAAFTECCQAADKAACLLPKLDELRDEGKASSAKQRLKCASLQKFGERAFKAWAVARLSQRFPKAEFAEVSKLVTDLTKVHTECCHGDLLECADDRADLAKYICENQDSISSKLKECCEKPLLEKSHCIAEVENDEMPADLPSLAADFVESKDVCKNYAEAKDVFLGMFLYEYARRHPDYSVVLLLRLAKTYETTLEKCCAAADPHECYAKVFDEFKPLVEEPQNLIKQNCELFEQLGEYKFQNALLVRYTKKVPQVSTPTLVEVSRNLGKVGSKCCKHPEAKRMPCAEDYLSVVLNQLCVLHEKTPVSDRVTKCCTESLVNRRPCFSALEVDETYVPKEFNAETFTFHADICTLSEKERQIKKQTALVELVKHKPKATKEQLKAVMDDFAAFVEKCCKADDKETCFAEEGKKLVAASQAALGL

With O=C([O-])CN(Cc1cccc(C(=O)[O-])n1)C[C@H](Cc1ccc(NC(=O)CCCCCNC(=O)CCC(=O)NCCCC[C@H](NC(=O)N[C@@H](CCC(=O)O)C(=O)O)C(=O)O)cc1)N(CC(=O)[O-])Cc1cccc(C(=O)[O-])n1.[111In+3] [[^111In]In-Octapa-1, reference compound] as the molecule, how does the “radioactivity in the eluate (in words)” value [1] read?
Its value is “low”.

What about the Blood ([2]; 1 h after administration) of the same molecule?
Its Blood is 0.48 ± 0.09 % ID/g.

And the Brain ([2]; 1 h after administration)?
The Brain was 0.02 ± 0.00 % ID/g.

And the Heart ([2]; 1 h after administration)?
The Heart was 0.32 ± 0.08 % ID/g.

What about the Intestine ([2]; 1 h after administration) of the same molecule?
Its Intestine is 0.40 ± 0.13 % ID/g.

And the Kidney ([2]; 1 h after administration)?
Its Kidney is 322 ± 42.8 % ID/g.

What about the “LNCaP Tumor” value ([2]; 1 h after administration) of the same molecule?
The value was 9.72 ± 1.65 % ID/g.

And the Liver ([2]; 1 h after administration)?
Its Liver is 0.36 ± 0.13 % ID/g.

What about the Lung ([2]; 1 h after administration) of the same molecule?
Its Lung is 0.99 ± 0.22 % ID/g.

What about the Muscle ([2]; 1 h after administration) of the same molecule?
The Muscle was 0.20 ± 0.01 % ID/g.

And the Pancreas ([2]; 1 h after administration)?
The Pancreas was 0.62 ± 0.19 % ID/g.

What about the Spleen ([2]; 1 h after administration) of the same molecule?
Its Spleen is 10.9 ± 5.59 % ID/g.

And the “Stomach (% ID)” value ([2]; 1 h after administration)?
Its value is 0.08 ± 0.01 % ID.

What about the Blood ([2]; 4 h after administration) of the same molecule?
The Blood was 0.21 ± 0.18 % ID/g.

And the Brain ([2]; 4 h after administration)?
The Brain was 0.02 ± 0.01 % ID/g.

And the Heart ([2]; 4 h after administration)?
The Heart was 0.18 ± 0.03 % ID/g.

What about the Intestine ([2]; 4 h after administration) of the same molecule?
Its Intestine is 3.50 ± 1.21 % ID/g.

What about the Kidney ([2]; 4 h after administration) of the same molecule?
Its Kidney is 112 ± 54.6 % ID/g.

And the “LNCaP Tumor” value ([2]; 4 h after administration)?
The value was 4.73 ± 0.40 % ID/g.

And the Liver ([2]; 4 h after administration)?
Its Liver is 0.13 ± 0.02 % ID/g.

And the Lung ([2]; 4 h after administration)?
The Lung was 0.23 ± 0.10 % ID/g.

And the Muscle ([2]; 4 h after administration)?
The Muscle was 0.10 ± 0.02 % ID/g.

What about the Pancreas ([2]; 4 h after administration) of the same molecule?
Its Pancreas is 0.24 ± 0.07 % ID/g.

And the Spleen ([2]; 4 h after administration)?
The Spleen was 3.55 ± 1.75 % ID/g.

What about the “Stomach (% ID)” value ([2]; 4 h after administration) of the same molecule?
Its value is 0.37 ± 0.22 % ID.

And the Blood ([2]; 24 h after administration)?
Its Blood is 0.02 % ID/g.

What about the Brain ([2]; 24 h after administration) of the same molecule?
Its Brain is 0.04 ± 0.04 % ID/g.

And the Heart ([2]; 24 h after administration)?
The Heart was 0.04 ± 0.01 % ID/g.

And the Intestine ([2]; 24 h after administration)?
The Intestine was 0.27 ± 0.08 % ID/g.

What about the Kidney ([2]; 24 h after administration) of the same molecule?
The Kidney was 24.9 ± 10.9 % ID/g.

What about the “LNCaP Tumor” value ([2]; 24 h after administration) of the same molecule?
The value was 2.00 ± 0.61 % ID/g.

And the Liver ([2]; 24 h after administration)?
The Liver was 0.06 ± 0.01 % ID/g.

And the Lung ([2]; 24 h after administration)?
The Lung was 0.13 ± 0.06 % ID/g.

And the Muscle ([2]; 24 h after administration)?
Its Muscle is 0.01 ± 0.01 % ID/g.

And the Pancreas ([2]; 24 h after administration)?
The Pancreas was 0.12 ± 0.03 % ID/g.

And the Spleen ([2]; 24 h after administration)?
The Spleen was 2.48 ± 1.44 % ID/g.

And the “Stomach (% ID)” value ([2]; 24 h after administration)?
The value was 0.03 ± 0.01 % ID.

And the Blood ([2]; 48 h after administration)?
Its Blood is 0.00 ± 0.00 % ID/g.

What about the Brain ([2]; 48 h after administration) of the same molecule?
Its Brain is 0.01 ± 0.00 % ID/g.

What about the Heart ([2]; 48 h after administration) of the same molecule?
The Heart was 0.02 ± 0.03 % ID/g.

What about the Intestine ([2]; 48 h after administration) of the same molecule?
The Intestine was 0.52 ± 0.33 % ID/g.

What about the Kidney ([2]; 48 h after administration) of the same molecule?
The Kidney was 7.48 ± 1.23 % ID/g.

And the “LNCaP Tumor” value ([2]; 48 h after administration)?
Its value is 0.58 ± 0.11 % ID/g.

What about the Liver ([2]; 48 h after administration) of the same molecule?
Its Liver is 0.04 ± 0.01 % ID/g.

What about the Lung ([2]; 48 h after administration) of the same molecule?
Its Lung is 0.06 ± 0.02 % ID/g.

What about the Muscle ([2]; 48 h after administration) of the same molecule?
The Muscle was 0.01 ± 0.02 % ID/g.

And the Pancreas ([2]; 48 h after administration)?
Its Pancreas is 0.05 ± 0.01 % ID/g.

And the Spleen ([2]; 48 h after administration)?
Its Spleen is 1.64 ± 0.53 % ID/g.

And the “Stomach (% ID)” value ([2]; 48 h after administration)?
Its value is 0.07 ± 0.04 % ID.

And the Blood ([2]; 96 h after administration)?
Its Blood is 0.02 ± 0.01 % ID/g.

And the Brain ([2]; 96 h after administration)?
Its Brain is 0.01 ± 0.00 % ID/g.

And the Heart ([2]; 96 h after administration)?
The Heart was 0.03 ± 0.00 % ID/g.

What about the Intestine ([2]; 96 h after administration) of the same molecule?
The Intestine was 0.13 ± 0.05 % ID/g.

What about the Kidney ([2]; 96 h after administration) of the same molecule?
The Kidney was 7.24 ± 3.00 % ID/g.

What about the “LNCaP Tumor” value ([2]; 96 h after administration) of the same molecule?
The value was 0.72 ± 0.11 % ID/g.

What about the Liver ([2]; 96 h after administration) of the same molecule?
Its Liver is 0.08 ± 0.02 % ID/g.

What about the Lung ([2]; 96 h after administration) of the same molecule?
The Lung was 0.09 ± 0.03 % ID/g.

What about the Muscle ([2]; 96 h after administration) of the same molecule?
Its Muscle is 0.03 ± 0.04 % ID/g.

What about the Pancreas ([2]; 96 h after administration) of the same molecule?
Its Pancreas is 0.04 ± 0.00 % ID/g.

What about the Spleen ([2]; 96 h after administration) of the same molecule?
The Spleen was 2.06 ± 0.88 % ID/g.

What about the “Stomach (% ID)” value ([2]; 96 h after administration) of the same molecule?
Its value is 0.03 ± 0.01 % ID.

And the Blood ([2]; 192 h after administration)?
The Blood was 0.00 % ID/g.

And the Brain ([2]; 192 h after administration)?
Its Brain is 0.01 % ID/g.

What about the Heart ([2]; 192 h after administration) of the same molecule?
Its Heart is 0.01 % ID/g.

And the Intestine ([2]; 192 h after administration)?
Its Intestine is 0.02 % ID/g.

What about the Kidney ([2]; 192 h after administration) of the same molecule?
The Kidney was 2.16 % ID/g.

What about the “LNCaP Tumor” value ([2]; 192 h after administration) of the same molecule?
The value was 0.36 % ID/g.

What about the Liver ([2]; 192 h after administration) of the same molecule?
Its Liver is 0.05 % ID/g.

And the Lung ([2]; 192 h after administration)?
The Lung was 0.04 % ID/g.

What about the Muscle ([2]; 192 h after administration) of the same molecule?
The Muscle was 0.02 % ID/g.

What about the Pancreas ([2]; 192 h after administration) of the same molecule?
Its Pancreas is 0.05 % ID/g.

And the Spleen ([2]; 192 h after administration)?
Its Spleen is 0.85 % ID/g.

What about the “Stomach (% ID)” value ([2]; 192 h after administration) of the same molecule?
The value was 0.01 % ID.
